Results as given in ChEMBL document CHEMBL3997795, “Conjugates of 2,4-Dihydroxybenzoate and Salicylhydroxamate and Lipocations Display Potent Antiparasite Effects by Efficiently Targeting the Trypanosoma brucei and Trypanosoma congolense Mitochondrion” (J Med Chem, 2017).
The source made the active and inactive calls. The rule behind the calls is not given here.

What was measured:
[1] = system: Trypanosoma brucei brucei; experiment: Trypanocidal activity against bloodstream trypomastigote stage of wild-type Trypanosoma brucei brucei Lister 427 assessed as inhibition of respiration in presence of glycerol; assay type: functional
[2] = system: Trypanosoma brucei brucei; experiment: Anti-parasitic activity against bloodstream trypomastigote stage of Trypanosoma brucei brucei Lister 427 over-expressing TAO relative to bloodstream trypomastigote stage of wild-type Trypanosoma brucei brucei Lister 427; assay type: functional
[3] = system: Trypanosoma brucei brucei; experiment: Reduction in oxygen consumption in bloodstream trypomastigote stage of wild-type Trypanosoma brucei brucei Lister 427 at 50 uM measured immediately for 120 mins by fluorescent oxygen reporter probe based fluorimetric assay; assay type: functional
[4] = system: Trypanosoma brucei brucei; experiment: Anti-parasitic activity against bloodstream trypomastigote stage of wild-type Trypanosoma brucei brucei Lister 427 after 48 hrs by alamar blue based fluorescence assay; assay type: functional; conditions: Lister 427, 48 h
[5] = system: Trypanosoma brucei brucei; experiment: Reduction in oxygen consumption in bloodstream trypomastigote stage of wild-type Trypanosoma brucei brucei Lister 427 measured immediately for 120 mins by fluorescent oxygen reporter probe based fluorimetric assay; assay type: functional
Trypanosoma congolense = experiment: Anti-parasitic activity against bloodstream form of Trypanosoma congolense IL3000 after 48 hrs by alamar blue based fluorescence assay; assay type: functional; conditions: IL3000, 48 h
[6] = Cytotoxicity against HEK cells up to 50 uM after 30 hrs by resazurin based fluorimetric assay; assay type: cell-based; conditions: human
[7] = Resistance factor, ratio of EC50 for diminazene, pentamidine and melaminophenyl arsenical-resistant bloodstream trypomastigote stage of Trypanosoma brucei brucei B48 harboring TbAT1 deletion mutant to EC50 for bloodstream trypomastigote stage of wild-type Trypanosoma brucei brucei Lister 427; assay type: functional
[8] = Selectivity index, ratio of CC50 for HEK293T cells to EC50 for bloodstream trypomastigote stage of wild-type Trypanosoma brucei brucei Lister 427; assay type: toxicity; conditions: human, read-out: Ratio CC50/EC50
[9] = system: Trypanosoma brucei brucei; experiment: Anti-parasitic activity against diminazene, pentamidine and melaminophenyl arsenical-resistant bloodstream trypomastigote stage of Trypanosoma brucei brucei B48 harboring TbAT1 deletion mutant after 48 hrs by alamar blue based fluorescence assay; assay type: functional; conditions: B48, 48 h
[10] = Cytostatic activity against HEK293T cells after 30 hrs by resazurin based fluorimetric assay; assay type: cell-based, HEK-293T; conditions: human
[11] = Inhibition of recombinant MTS-deficient N-terminal His6-tagged and SUMO-tagged Trypanosoma alternative oxidase expressed in Escherichia coli FN102 using ubiquinol-1 as substrate
[12] = system: Trypanosoma brucei brucei; experiment: Resistant factor, ratio of EC50 for bloodstream trypomastigote stage of wild-type Trypanosoma brucei brucei Lister 427 assessed as inhibition of respiration in presence of glycerol to EC50 for bloodstream trypomastigote stage of wild-type Trypanosoma brucei brucei Lister 427 assessed as inhibition of respiration in absence of glycerol; assay type: functional
[13] = Selectivity index, ratio of CC50 for HEK293T cells to EC50 for bloodstream form of Trypanosoma congolense IL3000; assay type: toxicity; conditions: human, read-out: Ratio CC50/EC50
[14] = system: Trypanosoma brucei brucei; experiment: Induction of mitochondrial membrane depolarization in bloodstream trypomastigote stage of wild-type Trypanosoma brucei brucei Lister 427 at 100 nM after 10 mins by TMRE dye based flow cytometry; assay type: functional
[15] = Selectivity index, ratio of CC50 for HFF cells to EC50 for bloodstream form of Trypanosoma congolense IL3000; assay type: toxicity; conditions: human, read-out: Ratio CC50/EC50
[16] = Cytotoxicity against HFF cells after 30 hrs by resazurin based fluorimetric assay; assay type: cell-based; conditions: human
[17] = Selectivity index, ratio of CC50 for HFF cells to EC50 for bloodstream trypomastigote stage of wild-type Trypanosoma brucei brucei Lister 427; assay type: toxicity; conditions: human, read-out: Ratio CC50/EC50
[18] = system: Trypanosoma brucei brucei; experiment: Trypanocidal activity against bloodstream trypomastigote stage of wild-type Trypanosoma brucei brucei Lister 427 assessed as inhibition of respiration at 10 uM in presence of glycerol; assay type: functional
[19] = system: Trypanosoma brucei brucei; experiment: Trypanocidal activity against bloodstream trypomastigote stage of wild-type Trypanosoma brucei brucei Lister 427 assessed as inhibition of respiration at 10 uM; assay type: functional
[20] = system: Trypanosoma brucei brucei; experiment: Trypanocidal activity against bloodstream trypomastigote stage of wild-type Trypanosoma brucei brucei Lister 427 at 3 times EC50 after 4 hrs by propidium iodide staining based fluorimetric assay; assay type: functional
[21] = system: Trypanosoma brucei brucei; experiment: Induction of plasma membrane disruption in bloodstream trypomastigote stage of wild-type Trypanosoma brucei brucei Lister 427 assessed as increase in propidium iodide influx after 6 hrs by fluorimetric assay; assay type: functional
[22] = system: Trypanosoma brucei brucei; experiment: Induction of mitochondrial membrane hyperpolarization in bloodstream trypomastigote stage of wild-type Trypanosoma brucei brucei Lister 427 at 10 uM after 10 mins by TMRE dye based flow cytometry; assay type: functional
[23] = system: Trypanosoma brucei brucei; experiment: Cell cycle arrest in bloodstream trypomastigote stage of wild-type Trypanosoma brucei brucei Lister 427 assessed as accumulation at G1 phase at 0.005 uM after 24 hrs by propidium iodide staining-based flow cytometry; assay type: functional
[24] = system: Trypanosoma brucei brucei; experiment: Cell cycle arrest in bloodstream trypomastigote stage of wild-type Trypanosoma brucei brucei Lister 427 assessed as accumulation at G2 phase at 0.005 uM after 24 hrs by propidium iodide staining-based flow cytometry; assay type: functional
[25] = system: Trypanosoma brucei brucei; experiment: Cell cycle arrest in bloodstream trypomastigote stage of wild-type Trypanosoma brucei brucei Lister 427 assessed as accumulation at S phase at 0.005 uM after 24 hrs by propidium iodide staining-based flow cytometry; assay type: functional
[26] = system: Trypanosoma brucei brucei; experiment: Induction of mitochondrial membrane depolarization in bloodstream trypomastigote stage of wild-type Trypanosoma brucei brucei Lister 427 at 0.005 uM after 10 mins by TMRE dye based flow cytometry; assay type: functional

| Structure (SMILES) | EC50 [1] [nM] | EC50 [4] [nM] | EC50 (Trypanosoma congolense) [nM] | Activity [6] | Ratio EC50 [7] | selectivity ratio [8] | EC50 [9] [nM] | CC50 at 30 h [10] [nM] | Ratio EC50 [12] | selectivity ratio [13] | further results |
| --- | --- | --- | --- | --- | --- | --- | --- | --- | --- | --- | --- |
| O=C(NO)c1ccccc1O [SALICYLHYDROXAMIC ACID] | 7000 | 38700 | – | – | – | – | – | – | – | – | fold change (FC) [2]: 1.6; Activity [3]: Active; Activity [5]: Dose-dependent effect |
| O=COCCCCCCCCCCOC(=O)c1ccc(O)cc1O | – | 31800 | > 100000 | Non-Toxic | 0.69 | > 12 | 22100 | > 400000 | – | – | – |
| O=C(O)c1ccc(O)cc1O [2,4-DIHYDROXYBENZOIC ACID] | 19000 | 17100 | – | – | – | – | – | – | 1.11 | – | IC50 [11]: 116000 nM |
| O=C(OCCCCCCCCC[P+](c1ccccc1)(c1ccccc1)c1ccccc1)c1ccc(O)cc1O.[Br-] | 5 | 5.9 | 410 | Non-Toxic | 1.24 | 789 | 7.4 | 4680 | 0.88 | 11.5 | – |
| N=C(N)c1ccc(/N=N/Nc2ccc(C(=N)N)cc2)cc1 [DIMINAZENE] | 63 | 65 | 151 | – | – | – | 780 | – | 0.97 | – | – |
| O=C(OCCCCCCCCCCCCBr)c1ccc(O)cc1O | – | 14500 | 52100 | Non-Toxic | 1.03 | > 28 | 14900 | > 400000 | – | > 7.7 | – |
| O=C(NO)c1ccc(OCCCCCCCCCC[P+](c2ccccc2)(c2ccccc2)c2ccccc2)cc1O.[Br-] | – | 200 | – | Non-Toxic | – | > 2040 | – | > 400000 | – | – | – |
| O=C(OCCCCCCCCCC[P+](c1ccccc1)(c1ccccc1)c1ccccc1)c1ccc(O)cc1O.[Br-] | 2 | 1.3 | 180 | Non-Toxic | 0.86 | 1770 | 1.1 | 2330 | 1.26 | 13.2 | – |
| CC(C)[C@@H]1NC(=O)[C@H](C)OC(=O)[C@@H](C(C)C)NC(=O)[C@@H](C(C)C)OC(=O)[C@H](C(C)C)NC(=O)[C@H](C)OC(=O)[C@@H](C(C)C)NC(=O)[C@@H](C(C)C)OC(=O)[C@H](C(C)C)NC(=O)[C@H](C)OC(=O)[C@@H](C(C)C)NC(=O)[C@@H](C(C)C)OC1=O | – | – | – | – | – | – | – | – | – | – | Activity [14]: Active |
| O=C(OCCCCCCCCCCCCCCCC[n+]1cccc2ccccc21)c1ccc(O)cc1O.[Br-] | 89 | 140 | 3000 | – | 1.01 | – | 140 | – | 0.62 | – | selectivity ratio [15]: 115; CC50 at 30 h [16]: 345000 nM; IC50 [11]: > 5000 nM; selectivity ratio [17]: 2410 |
| BrCCCCCCCCCC[P+](c1ccccc1)(c1ccccc1)c1ccccc1.[Br-] | – | 1.8 | 950 | Non-Toxic | 0.7 | 3340 | 1.2 | 6010 | – | 6.3 | inhibition [18]: inactive; inhibition [19]: inactive |
| O=C(OCCCCCCCC[P+](c1ccccc1)(c1ccccc1)c1ccccc1)c1ccc(O)cc1O.[Br-] | 84 | 73 | 4300 | Non-Toxic | 0.94 | 106 | 68 | 7730 | 1.16 | 1.8 | – |
| O=C(OCCCCCCCCCCCCCC[n+]1cccc2ccccc21)c1ccc(O)cc1O.[Br-] | 78 | 100 | 3800 | – | 1.21 | – | 125 | – | 0.75 | – | selectivity ratio [15]: 45.3; Activity [20]: Active; CC50 at 30 h [16]: 172000 nM; Activity [21]: Dose-dependent effect; IC50 [11]: 1360 nM; selectivity ratio [17]: 1660 |
| O=C(NO)c1ccc(OCCCCCCCC[P+](c2ccccc2)(c2ccccc2)c2ccccc2)cc1O.[Br-] | – | 400 | 27200 | Non-Toxic | – | > 1000 | – | > 400000 | – | > 14.7 | – |
| N=C(N)c1ccc(OCCCCCOc2ccc(C(=N)N)cc2)cc1 [PENTAMIDINE] | 4 | 2.8 | – | – | 98 | – | 940 | – | 1.32 | – | – |
| O=C(NO)c1ccc(OCCCCCCCCCCCC[P+](c2ccccc2)(c2ccccc2)c2ccccc2)cc1O.[Br-] | 158 | 140 | 46400 | Non-Toxic | – | > 2860 | – | > 400000 | 1.13 | > 8.6 | – |
| Cc1c(C)c2c(c(C)c1O)CCC(C)(COc1ccc(CC3SC(=O)NC3=O)cc1)O2 (stereo not given) | – | – | – | – | – | – | – | – | – | – | Activity [22]: Active |
| O=C(OCCCCCCCCCCCCCCCCBr)c1ccc(O)cc1O | – | 45700 | > 100000 | Non-Toxic | 1.07 | > 9 | 49000 | > 400000 | – | – | – |
| O=C(OCCCCCCCCCCCCCC[P+](c1ccccc1)(c1ccccc1)c1ccccc1)c1ccc(O)cc1O.[Br-] | 0.8 | 1.5 | 61 | – | 0.78 | – | 1.2 | – | 0.55 | – | selectivity ratio [15]: 982; Activity [23]: Active; Activity [20]: Active; fold change (FC) [2]: 2.6; Activity [24]: Active; CC50 at 30 h [16]: 59700 nM; Activity [25]: Active; Activity [21]: Dose-dependent effect; IC50 [11]: 1460 nM; Activity [5]: Dose-dependent effect; Activity [26]: Active; selectivity ratio [17]: 23400 |
| O=C(OCCCCCCCCCCCCCCCC[P+](c1ccccc1)(c1ccccc1)c1ccccc1)c1ccc(O)cc1O.[Br-] | 5 | 9 | 122 | – | 0.91 | – | 8 | – | 0.6 | – | selectivity ratio [15]: 2040; CC50 at 30 h [16]: 249000 nM; IC50 [11]: > 5000 nM; selectivity ratio [17]: 27700 |
| O=C(OCCCCCCCCCCCC[n+]1cccc2ccccc21)c1ccc(O)cc1O.[Br-] | 230 | 330 | 7000 | – | 1.05 | – | 347 | – | 0.69 | – | selectivity ratio [15]: 28.7; CC50 at 30 h [16]: 202000 nM; IC50 [11]: > 5000 nM; selectivity ratio [17]: 609 |
| O=C(OCCCCCCCCCCCC[P+](c1ccccc1)(c1ccccc1)c1ccccc1)c1ccc(O)cc1O.[Br-] | 1.2 | 1.2 | 42 | Non-Toxic | 0.96 | 1330 | 1.2 | 1650 | 1.01 | – | – |
